Reference: patent publication US11390604B2 (Hoffmann-La Roche Inc., priority 2019, dated 2022)
Where a name gives a salt, the structure may show the parent alone. Read-outs that look alike come from different tables or passages of the source.

Tested on: Acinetobacter baumannii ATCC 17961
Test: Antimicrobial susceptibility testing: 90% growth inhibitory concentration (IC90) determination
Type: cell-based
Conditions: read-out: ATCC 17961 IC90
In short: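 Growth was followed kinetically by OD600 at 20-min intervals for 16 h at 35±2 °C, with ~5×10^5 CFU/ml in Iso-Sensitest broth. Compounds were tested as twofold dilutions (e.g. 50–0.097 μM final). The concentration giving 90% inhibition of log-phase growth was reported.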

[1] = ATCC17961, Acinetobacter baumannii ATCC 17961, Iso-Sensitest broth

IC90 [1] | Molecule | IC90 (Acinetobacter baumannii ATCC 17961, Iso-Sensitest broth)
0.263 µM | Cn1c(-c2cn(C3CC3)nc2C(F)(F)F)cnc1C(=O)Nc1ccc(C(=O)N2CCN(C(=O)[C@@H]3CCNC3)CC2)c(Cl)c1 [Example 229, (R)-N-(3-chloro-4-(4-(pyrrolidine-3-carbonyl)piperazine-1-carbonyl)phenyl)-5-(1-cyclopropyl-3-(trifluoromethyl)-1H-pyrazol-4-yl)-1-methyl-1H-imidazole-2-carboxamide hydrochloride] | –
– | rac-4-(2-chloro-4-(5-(1- cyclopropyl-3-(trifluoromethyl)- 1H-pyrazol-4-yl)-1-methyl-1H- imidazole-2- carboxamido)benzoyl)-N- ((1s,3s)-3- (methylamino)cyclobutyl)pipera- zine-1-carboxamide formate [Example 256] | 0.313 µM
0.358 µM | Cn1c(-c2cn(CC(F)F)nc2C(F)(F)F)cnc1C(=O)Nc1ccc(C(=O)N2CCN(CCN)CC2)c(Cl)c1 [Example 290, N-(4-(4-(2-aminoethyl)piperazine-1-carbonyl)-3-chlorophenyl)-5-(1-(2,2-difluoroethyl)-3-(trifluoromethyl)-1H-pyrazol-4-yl)-1-methyl-1H-imidazole-2-carboxamide formate] | –
0.302 µM | Cn1c(-c2cn(C3CC3)nc2C(F)(F)F)cnc1C(=O)Nc1ccc(C(=O)N2CCN(C(=O)[C@H]3CCCN3)CC2)c(Cl)c1 [Example 250, (R)-N-(3-chloro-4-(4-prolylpiperazine-1-carbonyl)phenyl)-5-(1-cyclopropyl-3-(trifluoromethyl)-1H-pyrazol-4-yl)-1-methyl-1H-imidazole-2-carboxamide hydrochloride] | –
0.403 µM | Cn1c(-c2cn(CF)nc2C(F)(F)F)cnc1C(=O)Nc1ccc(C(=O)N2CCN(C(=O)C3CCNCC3)CC2)c(Cl)c1 [Example 99, N-[3-chloro-4-[4-(piperidine-4-carbonyl)piperazine-1-carbonyl]phenyl]-5-[1-(fluoromethyl)-3-(trifluoromethyl)pyrazol-4-yl]-1-methylimidazole-2-carboxamide;hydrochloride] | –
1.5 µM | CCc1cc(NC(=O)c2ncc(-c3cn(Cc4cccnc4)nc3C(F)(F)F)n2C)ccc1C(=O)N1CCN(C(=O)C2(O)CCNCC2)CC1 [Example 160, N-[3-ethyl-4-[4-(4-hydroxypiperidine-4-carbonyl)piperazine-1-carbonyl]phenyl]-1-methyl-5-[1-(pyridin-3-ylmethyl)-3-(trifluoromethyl)pyrazol-4-yl]imidazole-2-carboxamide;formic acid] | –
0.981 µM | CC(C)NC(=O)Cn1cc(-c2cnc(C(=O)Nc3ccc(C(=O)N4CCN(C(=O)C5CCNCC5)CC4)c(Cl)c3)n2C)c(C(F)(F)F)n1 [Example 24, N-(3-chloro-4-(4-(piperidine-4-carbonyl)piperazine-1-carbonyl)phenyl)-5-(1-(2-(isopropylamino)-2-oxoethyl)-3-(trifluoromethyl)-1H-pyrazol-4-yl)-1-methyl-1H-imidazole-2-carboxamide formate] | –
0.343 µM | Cn1c(-c2cn(CC(F)F)nc2C(F)(F)F)cnc1C(=O)Nc1ccc(C(=O)N2CCN(C(=O)N[C@H]3CCNC3)CC2)c(Cl)c1 [Example 142, 4-[2-chloro-4-[[5-[1-(2,2-difluoroethyl)-3-(trifluoromethyl)pyrazol-4-yl]-1-methylimidazole-2-carbonyl]amino]benzoyl]-N-[(3S)-pyrrolidin-3-yl]piperazine-1-carboxamide;formic acid] | –
0.341 µM | Cn1c(-c2cn(CC#N)nc2C(F)(F)F)cnc1C(=O)Nc1ccc(C(=O)N[C@H]2C[C@@H](NC(=O)N[C@@H]3CC[C@H](N)C3)C2)c(Cl)c1 [Example 275, N-[4-[[3-[[(1R,3S)-3-aminocyclopentyl]carbamoylami-no]cyclobutyl]carbamoyl]-3-chloro-phenyl]-5-[1-(cyanomethyl)-3-(trifluoromethyl)pyrazol-4-yl]-1-methyl-imidazole-2-carboxamide; formic acid] | –
0.252 µM | Cn1c(-c2cn(C3CC3)nc2C(F)(F)F)cnc1C(=O)Nc1ccc(C(=O)N2CCN(C(=O)[C@@H]3CCCNC3)CC2)c(Cl)c1 [Example 223, (R)-N-(3-chloro-4-(4-(piperidine-3-carbonyl)piperazine-1-carbonyl)phenyl)-5-(1-cyclopropyl-3-(trifluoromethyl)-1H-pyrazol-4-yl)-1-methyl-1H-imidazole-2-carboxamide hydrochloride] | –
1.45 µM | Cc1cc(NC(=O)c2ncc(-c3c[nH]nc3C(F)(F)F)n2C)ccc1C(=O)N1CCN(C(=O)C2CCNCC2)CC1 [Example 29, 1-Methyl-N-(3-methyl-4-(4-(piperidine-4-carbonyl)piperazine-1-carbonyl)phenyl)-5-(3-(trifluoromethyl)-1H-pyrazol-4-yl)-1H-imidazole-2-carboxamide dihydrochloride] | –
0.086 µM | Cn1c(-c2cn(C3CC3(F)F)nc2C(F)(F)F)cnc1C(=O)Nc1ccc(C(=O)NCC2(N)CC2)c(Cl)c1 (stereo not shown) [Example 178, N-(4-(((1-aminocyclopropyl)methyl)carbamoyl)-3-chlorophenyl)-5-(1-(2,2-difluorocyclopropyl)-3-(trifluoromethyl)-1H-pyrazol-4-yl)-1-methyl-H-imidazole-2-carboxamide Formate] | –
1.17 µM | CCc1cc(NC(=O)c2ncc(-c3cn(CC#N)nc3C(F)(F)F)n2C)ccc1C(=O)N1CCN(C(=O)NCC2(O)CNC2)CC1 [Example 132, 4-[4-[[5-[1-(cyanomethyl)-3-(trifluoromethyl)pyrazol-4-yl]-1-methylimidazole-2-carbonyl]amino]-2-ethylbenzoyl]-N-[(3-hydroxyazetidin-3-yl)methyl]piperazine-1-carboxamide;formic acid] | –
0.758 µM | CCc1cc(NC(=O)c2ncc(-c3cn(CC(F)F)nc3C(F)(F)F)n2C)ccc1C(=O)N1CCN(C(=O)[C@@H]2CCNC2)CC1 [Example 156, 5-[1-(2,2-difluoroethyl)-3-(trifluoromethyl)pyrazol-4-yl]-N-[3-ethyl-4-[4-[(3R)-pyrrolidine-3-carbonyl]piperazine-1-carbonyl]phenyl]-1-methylimidazole-2-carboxamide;formic acid] | –
1.06 µM | C#CCn1cc(-c2cnc(C(=O)Nc3ccc(C(=O)N4CCN(C(=O)OC(C)(C)C)CC4)c(Cl)c3)n2C)c(C(F)(F)F)n1 [Example 34, tert-butyl 4-[2-chloro-4-[[1-methyl-5-[1-prop-2-ynyl-3-(trifluoromethyl)pyrazol-4-yl]imidazole-2-carbonyl]amino]benzoyl]piperazine-1-carboxylate] | –
1.28 µM | CCc1cc(NC(=O)c2ncc(-c3cn(Cc4cccnc4)nc3C(F)(F)F)n2C)ccc1C(=O)N1CCN(C(=O)[C@@H]2CCNC2)CC1 [Example 161, N-[3-ethyl-4-[4-[(3R)-pyrrolidine-3-carbonyl]piperazine-1-carbonyl]phenyl]-1-methyl-5-[1-(pyridin-3-ylmethyl)-3-(trifluoromethyl)pyrazol-4-yl]imidazole-2-carboxamide;formic acid] | –
4.15 µM | CCc1cc(NC(=O)c2ncc(-c3cn(C)nc3C(F)(F)F)n2C)ccc1C(=O)NCCOCCN [Example 57, N-(4-((2-(2-aminoethoxy)ethyl)carbamoyl)-3-ethylphenyl)-1-methyl-5-(1-methyl-3-(trifluoromethyl)-1H-pyrazol-4-yl)-1H-imidazole-2-carboxamide hydrochloride] | –
0.17 µM | C#CCn1cc(-c2cnc(C(=O)Nc3ccc(C(=O)N4CCN(C(=O)N5CCC[C@H](N)C5)CC4)c(Cl)c3)n2C)c(C(F)(F)F)n1 [Example 85, N-[4-[4-[(3S)-3-aminopiperidine-1-carbonyl]piperazine-1-carbonyl]-3-chlorophenyl]-1-methyl-5-[1-prop-2-ynyl-3-(trifluoromethyl)pyrazol-4-yl]imidazole-2-carboxamide] | –
0.223 µM | Cn1c(-c2cn(C3CC3(F)F)nc2C(F)(F)F)cnc1C(=O)Nc1ccc(N2CCCC2=O)cc1 (stereo not shown) [Example 204, 5-(1-(2,2-difluorocyclopropyl)-3-(trifluoromethyl)-1H-pyrazol-4-yl)-1-methyl-N-(4-(2-oxopyrrolidin-1-yl)phenyl)-1H-imidazole-2-carboxamide] | –
0.288 µM | C#CCn1cc(-c2cnc(C(=O)Nc3ccc(C(=O)N4CCN(C(=O)N[C@H]5CC[C@H](N)C5)CC4)c(Cl)c3)n2C)c(C(F)(F)F)n1 [Example 83, N-[(1S,3S)-3-aminocyclopentyl]-4-[2-chloro-4-[[1-methyl-5-[1-prop-2-ynyl-3-(trifluoromethyl)pyrazol-4-yl]imidazole-2-carbonyl]amino]benzoyl]piperazine-1-carboxamide] | –
0.123 µM | Cn1c(-c2cn(C3CC3(F)F)nc2C(F)(F)F)cnc1C(=O)Nc1ccc(C(=O)N[C@H]2[C@@H]3CN(C(=O)N[C@H]4CNC[C@@H]4O)C[C@@H]32)c(Cl)c1 (mixture of isomers) [Example 381, exo-6-(2-chloro-4-(5-(1-(2,2-difluorocyclopropyl)-3-(trifluoromethyl)-1H-pyrazol-4-yl)-1-methyl-1H-imidazole-2-carboxamido)benzamido)-N-((3S,4S)-4-hydroxypyrrolidin-3-yl)-3-azabicyclo[3.1.0]hexane-3-carboxamide formate] | –
1.05 µM | CCc1cc(NC(=O)c2ncc(-c3cn(CC#N)nc3C(F)(F)F)n2C)ccc1C(=O)N1CCN(C(=O)NC2C3CNCC32)CC1 (stereo not shown) [Example 140, N-(3-azabicyclo[3.1.0]hexan-6-yl)-4-[4-[[5-[1-(cyanomethyl)-3-(trifluoromethyl)pyrazol-4-yl]-1-methylimidazole-2-carbonyl]amino]-2-ethylbenzoyl]piperazine-1-carboxamide;formic acid] | –
